Test results as given in patent publication US20210059959A1, “USE OF CANNABINOIDS IN THE TREATMENT OF MENTAL DISORDERS” (GW Pharma Limited, priority 2015, published 2021).

Tested on: participants with schizophrenia or related psychotic disorder
Assay: Scale for the Assessment of Negative Symptoms (SANS), double-blind placebo-controlled study of CBD as adjunctive therapy
Type: in vivo, human
Settings: CBD vs placebo
Procedure: Example 1 below describes the use of a highly purified cannabis extract comprising cannabidiol (CBD) in a human clinical trial. Example 1 describes data produced in a double-blind, randomised, placebo-controlled, parallel group study of highly purified CBD as adjunctive therapy in first line treatment of schizophrenia or related psychotic disorder.
An eight-week, multi-centre, double-blind, randomised, placebo-controlled, parallel group study was conducted with the aim to determine the efficacy, safety and tolerability of highly purified CBD as adjunctive therapy in first line treatment of schizophrenia or related psychotic disorder.
This study evaluated the efficacy of highly purified CBD compared with placebo on the participant's PANSS Total score, ‘P’, ‘N’, ‘G’, SANS and BACS scores.
Changes from baseline in PANSS scores (Total, ‘P’, ‘N’ and ‘G’), SANS and BACS were recorded at the start of the study (baseline) and at the end of treatment (after 6 weeks treatment with CBD or placebo).
For inclusion in the study participants were required to be male or female aged 18 to 65 years, diagnosed with schizophrenia or a related psychotic disorder (such as schizoaffective or schizophreniform disorder) as defined by the Diagnostic and Statistical Manual of Mental Disorders Version 4. Participants must have been treated for a minimum of four-weeks and be on a stable dose of their current antipsychotic medication. […] A PANSS score in excess of 60 infers that the patient has symptoms related to schizophrenia or related disorders.
The participants were randomised to one of two treatment groups which each consisted of 39 participants. Treatment was administered as either 5 ml CBD (100 mg/ml) oral solution to be taken twice daily or 5 ml matched placebo oral solution to be taken twice daily.
Scale for the Assessment of Negative Symptoms (SANS)
SANS assesses five symptom complexes to obtain clinical ratings of negative symptoms in participants with schizophrenia or related psychotic disorder. They are: affective blunting; alogia (impoverished thinking); avolition/apathy; anhedonia/asociality; and disturbance of attention.
Assessments are conducted on a six-point scale (0=not at all to 5=severe). This scale was measured at each assessment visit (Visit 1-4)

[1] = patients on amisulpride, P = 0.8772

C=C(C)[C@@H]1CCC(C)=C[C@H]1c1c(O)cc(CCCCC)cc1O [CBD, Cannabidiol]
Change in baseline scores, SANS question 19: Sexual interest and activity: difference (all patients, P = 0.0364): (−0.4) | Change in baseline scores, SANS sub-scale 4 (anhedonia/asociality): difference (all patients, P = 0.0605): (−1.2) | Change in baseline scores, SANS question 24: Inattentiveness during mental status testing: difference (all patients, P = 0.0610): (−0.3) | Change in baseline scores, SANS sub-scale 5 (disturbance of attention): difference (all patients, P = 0.0660): (−0.7) | Change in baseline scores, SANS question 25: Global rating of attention: difference (all patients, P = 0.0773): (−0.2) | Change in baseline scores, SANS question 20: Ability to feel closeness and intimacy: difference (all patients, P = 0.0918): (−1.1) | Change in baseline scores, SANS total score: difference (all patients, P = 0.1168): (−3.5) | Change in baseline scores, SANS question 18: Recreational interests and activity: difference (all patients, P = 0.1535): (−0.3) | Change in baseline scores, SANS question 22: Global rating of anhedonia: difference (all patients, P = 0.1787): (−0.2) | Change in baseline scores, SANS question 23: Social inattentiveness: difference (all patients, P = 0.2445): (−0.2) | Change in baseline scores, SANS question 21: Relationships with friends and peers: difference (all patients, P = 0.8984): (0.0) | Change in baseline scores, SANS score: difference (patients on amisulpride, P = 0.0687): (16.6) | Change in baseline scores, SANS question 25: Global rating of attention: difference (patients on amisulpride, P = 0.0756): (1.0) | Change in baseline scores, SANS question 19: Sexual interest and activity: difference (patients on amisulpride, P = 0.1971): (−0.8) | Change in baseline scores, SANS question 18: Recreational interests and activity: difference (patients on amisulpride, P = 0.3833): (1.0) | Change in baseline scores, SANS sub-scale 5 (disturbance of attention): difference (patients on amisulpride, P = 0.4023): (1.3) | Change in baseline scores, SANS question 23: Social inattentiveness: difference (patients on amisulpride, P = 0.4206): (0.5) | Change in baseline scores, SANS sub-scale 4 (anhedonia/asociality): difference (patients on amisulpride, P = 0.4357): (1.4) | Change in baseline scores, SANS question 21: Relationships with friends and peers: difference (patients on amisulpride, P = 0.5671): (0.5) | Change in baseline scores, SANS question 24: Inattentiveness during mental status testing: difference (patients on amisulpride, P = 0.8060): (−0.2) | Change in baseline scores, SANS question 15: Impersistence at work or school: difference (patients on amisulpride, P = 0.8729): (0.0) | Change in baseline scores, SANS question 20: Ability to feel closeness and intimacy: difference [1]: (0.1) | Change in baseline scores, SANS question 22: Global rating of anhedonia: difference [1]: (0.1) | Change in baseline scores, SANS question 25: Global rating of attention: difference (patients on aripiprazole, P = 0.0412): (−0.4) | Change in baseline scores, SANS sub-scale 5 (disturbance of attention): difference (patients on aripiprazole, P = 0.1133): (−1.0) | Change in baseline scores, SANS question 24: Inattentiveness during mental status testing: difference (patients on aripiprazole, P = 0.1740): (−0.4) | Change in baseline scores, SANS question 15: Impersistence at work or school: difference (patients on aripiprazole, P = 0.1966): (−0.5) | Change in baseline scores, SANS question 18: Recreational interests and activity: difference (patients on aripiprazole, P = 0.2979): (−0.3) | Change in baseline scores, SANS question 23: Social inattentiveness: difference (patients on aripiprazole, P = 0.3546): (−0.2) | Change in baseline scores, SANS question 19: Sexual interest and activity: difference (patients on aripiprazole, P = 0.4231): (−0.3) | Change in baseline scores, SANS sub-scale 4 (anhedonia/asociality): difference (patients on aripiprazole, P = 0.7086): (−0.5) | Change in baseline scores, SANS score: difference (patients on aripiprazole, P = 0.7642): (−1.4) | Change in baseline scores, SANS question 21: Relationships with friends and peers: difference (patients on aripiprazole, P = 0.8346): (−0.1) | Change in baseline scores, SANS question 20: Ability to feel closeness and intimacy: difference (patients on aripiprazole, P = 0.8965): (0.0) | Change in baseline scores, SANS question 22: Global rating of anhedonia: difference (patients on aripiprazole, P = 0.9259): (0.0) | Change in baseline scores, SANS score: difference (patients on olanzapine, P = 0.0050): (−14.3) | Change in baseline scores, SANS question 20: Ability to feel closeness and intimacy: difference (patients on olanzapine, P = 0.0069): (−0.9) | Change in baseline scores, SANS sub-scale 4 (anhedonia/asociality): difference (patients on olanzapine, P = 0.0071): (−3.7) | Change in baseline scores, SANS question 15: Impersistence at work or school: difference (patients on olanzapine, P = 0.0242): (−0.9) | Change in baseline scores, SANS question 22: Global rating of anhedonia: difference (patients on olanzapine, P = 0.0475): (−0.6) | Change in baseline scores, SANS question 18: Recreational interests and activity: difference (patients on olanzapine, P = 0.0689): (−0.8) | Change in baseline scores, SANS question 19: Sexual interest and activity: difference (patients on olanzapine, P = 0.0794): (−0.9) | Change in baseline scores, SANS question 25: Global rating of attention: difference (patients on olanzapine, P = 0.1064): (−0.6) | Change in baseline scores, SANS sub-scale 5 (disturbance of attention): difference (patients on olanzapine, P = 0.3556): (−1.0) | Change in baseline scores, SANS question 21: Relationships with friends and peers: difference (patients on olanzapine, P = 0.4829): (−0.2) | Change in baseline scores, SANS question 24: Inattentiveness during mental status testing: difference (patients on olanzapine, P = 0.5922): (−0.2) | Change in baseline scores, SANS question 23: Social inattentiveness: difference (patients on olanzapine, P = 0.6757): (−0.2) | Change in baseline scores, SANS question 24: Inattentiveness during mental status testing: difference (patients on other antipsychotics, P = 0.0654): (−1.6) | Change in baseline scores, SANS question 25: Global rating of attention: difference (patients on other antipsychotics, P = 0.1763): (0.8) | Change in baseline scores, SANS question 20: Ability to feel closeness and intimacy: difference (patients on other antipsychotics, P = 0.2601): (−0.4) | Change in baseline scores, SANS question 15: Impersistence at work or school: difference (patients on other antipsychotics, P = 0.2746): (−10.6) | Change in baseline scores, SANS score: difference (patients on other antipsychotics, P = 0.3359): (−8.3) | Change in baseline scores, SANS sub-scale 5 (disturbance of attention): difference (patients on other antipsychotics, P = 0.4192): (−1.5) | Change in baseline scores, SANS question 23: Social inattentiveness: difference (patients on other antipsychotics, P = 0.4246): (−0.5) | Change in baseline scores, SANS sub-scale 4 (anhedonia/asociality): difference (patients on other antipsychotics, P = 0.5465): (−0.8) | Change in baseline scores, SANS question 21: Relationships with friends and peers: difference (patients on other antipsychotics, P = 0.6373): (−0.2) | Change in baseline scores, SANS question 22: Global rating of anhedonia: difference (patients on other antipsychotics, P = 0.6969): (−0.2) | Change in baseline scores, SANS question 18: Recreational interests and activity: difference (patients on other antipsychotics, P = 0.8182): (−0.1) | Change in baseline scores, SANS question 19: Sexual interest and activity: difference (patients on other antipsychotics, P = 0.9656): (0.0) | Change in baseline scores, SANS sub-scale 4 (anhedonia/asociality): difference (patients on quetiapine, P = 0.0017): (−4.8) | Change in baseline scores, SANS question 21: Relationships with friends and peers: difference (patients on quetiapine, P = 0.0044): (−0.7) | Change in baseline scores, SANS question 18: Recreational interests and activity: difference (patients on quetiapine, P = 0.0233): (−1.3) | Change in baseline scores, SANS question 19: Sexual interest and activity: difference (patients on quetiapine, P = 0.0501): (−1.4) | Change in baseline scores, SANS question 23: Social inattentiveness: difference (patients on quetiapine, P = 0.0862): (−0.5) | Change in baseline scores, SANS question 22: Global rating of anhedonia: difference (patients on quetiapine, P = 0.1043): (−1.1) | Change in baseline scores, SANS question 20: Ability to feel closeness and intimacy: difference (patients on quetiapine, P = 0.1330): (−0.4) | Change in baseline scores, SANS question 25: Global rating of attention: difference (patients on quetiapine, P = 0.2697): (−0.4) | Change in baseline scores, SANS sub-scale 5 (disturbance of attention): difference (patients on quetiapine, P = 0.2701): (−1.1) | Change in baseline scores, SANS score: difference (patients on quetiapine, P = 0.3150): (−5.4) | Change in baseline scores, SANS question 24: Inattentiveness during mental status testing: difference (patients on quetiapine, P = 0.4421): (−0.6) | Change in baseline scores, SANS question 15: Impersistence at work or school: difference (patients on quetiapine, P = 0.6640): (5.1) | Change in baseline scores, SANS question 21: Relationships with friends and peers: difference (patients on risperidone, P = 0.0791): (0.5) | Change in baseline scores, SANS sub-scale 4 (anhedonia/asociality): difference (patients on risperidone, P = 0.2800): (1.2) | Change in baseline scores, SANS score: difference (patients on risperidone, P = 0.2955): (3.1) | Change in baseline scores, SANS sub-scale 5 (disturbance of attention): difference (patients on risperidone, P = 0.3302): (0.7) | Change in baseline scores, SANS question 25: Global rating of attention: difference (patients on risperidone, P = 0.3389): (0.2) | Change in baseline scores, SANS question 24: Inattentiveness during mental status testing: difference (patients on risperidone, P = 0.4231): (0.3) | Change in baseline scores, SANS question 18: Recreational interests and activity: difference (patients on risperidone, P = 0.4560): (−0.3) | Change in baseline scores, SANS question 23: Social inattentiveness: difference (patients on risperidone, P = 0.5207): (0.2) | Change in baseline scores, SANS question 15: Impersistence at work or school: difference (patients on risperidone, P = 0.6285): (0.1) | Change in baseline scores, SANS question 19: Sexual interest and activity: difference (patients on risperidone, P = 0.6889): (0.1) | Change in baseline scores, SANS question 20: Ability to feel closeness and intimacy: difference (patients on risperidone, P = 0.8648): (0.0) | Change in baseline scores, SANS question 22: Global rating of anhedonia: difference (patients on risperidone, P = 0.9940): (0.0)
